Measurements as given in patent US20110294799A1, “Organic Compounds” (NOVARTIS AG, priority 2007, published 2011).

What was measured:
[1] = target: T1, GABA-A alpha2 receptor (alpha 2 subunit together with a beta and a gamma subunit) (Homo sapiens, UniProt P18507+P47869); experiment: GABA-A receptor modulation, voltage-sensitive dye fluorescence in transfected eukaryotic cell line (alpha2); format: cell-based; details: compounds at 3 μM, sub-maximal concentration of GABA (EC20); for activation at 3 µM: read-out: alpha2 % mod (percentage of increase of the fluorescent signal compared to signal without the agent)
T1 construct: expressed in transfected cells
T1 sequence (P47869 29-451): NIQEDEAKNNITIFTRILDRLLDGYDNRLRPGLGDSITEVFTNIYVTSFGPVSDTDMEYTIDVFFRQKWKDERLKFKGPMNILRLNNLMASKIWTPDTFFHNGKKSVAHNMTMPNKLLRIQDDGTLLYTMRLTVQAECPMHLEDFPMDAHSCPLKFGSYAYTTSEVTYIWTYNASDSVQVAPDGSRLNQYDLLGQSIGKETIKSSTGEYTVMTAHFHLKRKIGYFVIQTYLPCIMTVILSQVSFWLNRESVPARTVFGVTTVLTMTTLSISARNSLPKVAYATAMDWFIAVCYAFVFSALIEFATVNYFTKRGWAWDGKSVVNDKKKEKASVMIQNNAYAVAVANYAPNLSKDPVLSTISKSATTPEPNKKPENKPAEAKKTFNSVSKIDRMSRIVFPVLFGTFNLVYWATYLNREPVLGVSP
T1 sequence (P47870 25-512 partner limits assumed): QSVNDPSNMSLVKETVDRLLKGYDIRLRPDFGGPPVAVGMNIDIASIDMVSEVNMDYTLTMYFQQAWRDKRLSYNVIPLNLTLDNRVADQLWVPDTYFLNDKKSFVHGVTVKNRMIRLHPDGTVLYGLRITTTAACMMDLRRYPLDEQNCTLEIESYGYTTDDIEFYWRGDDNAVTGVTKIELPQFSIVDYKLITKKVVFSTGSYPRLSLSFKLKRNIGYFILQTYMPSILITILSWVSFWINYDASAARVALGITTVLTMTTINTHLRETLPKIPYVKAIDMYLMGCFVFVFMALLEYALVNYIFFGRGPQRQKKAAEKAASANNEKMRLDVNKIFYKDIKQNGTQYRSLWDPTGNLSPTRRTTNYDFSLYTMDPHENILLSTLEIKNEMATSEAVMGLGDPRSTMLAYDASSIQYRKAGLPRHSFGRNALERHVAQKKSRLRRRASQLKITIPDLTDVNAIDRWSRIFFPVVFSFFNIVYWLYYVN
T1 sequence (P18507 40-467 limits assumed): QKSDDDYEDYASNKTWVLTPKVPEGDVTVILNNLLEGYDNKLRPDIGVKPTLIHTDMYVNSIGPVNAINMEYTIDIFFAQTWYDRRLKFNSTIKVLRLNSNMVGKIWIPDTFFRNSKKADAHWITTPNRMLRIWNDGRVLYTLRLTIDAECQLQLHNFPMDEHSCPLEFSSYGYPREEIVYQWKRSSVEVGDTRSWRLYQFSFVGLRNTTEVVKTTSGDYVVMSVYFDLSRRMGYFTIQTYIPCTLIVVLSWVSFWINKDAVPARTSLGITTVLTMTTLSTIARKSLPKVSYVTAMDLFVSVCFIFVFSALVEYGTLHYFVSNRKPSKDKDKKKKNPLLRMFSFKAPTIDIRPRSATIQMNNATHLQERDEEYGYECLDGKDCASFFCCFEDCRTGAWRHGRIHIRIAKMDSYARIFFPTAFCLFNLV
From the text: (§1) GABA-A receptor modulators show in functional assays a positive modulation of GABA-induced signals. This modulation can be determined in vitro, e.g., at recombinant GABA-A receptors expressed in a mammalian cell line, e.g. by measurement of GABA-A receptor induced changes of the trans-membrane voltage, when using a voltage-sensitive dye and a fluorescence detection system (Adkins, C. E., Pillai, G. V., Kerby, J., Bonnert, T. P., Haldon, C., Mckernan, R. M., Gonzalez, J. E., Oades, K., Whiting, P. J. & Simpson, P. B. [2001]. alpha4beta3delta GABA-A receptors characterized by fluorescence resonance energy transfer-derived measurements of membrane potential. J. Biol. Chem., 276, 38934-38939). In this assay, a modulator compound is pre-applied at different concentrations ranging from 0.1 nM to 10 μM to cells expressing GABA-A receptors and loaded with the voltage-sensitive dye, before, or at the same time as, a sub-maximal concentration of GABA (in the range of from 0.1 to 10 μM) is applied to the cells. The fluorescent signal is correlated with the degree of GABA-A receptor channel opening. This allows the quantification of effects induced by the modulator in a functional manner. By expression of different GABA-A receptor subunit combinations, the differential efficacy of a modulator at different GABA-A receptor variants can be tested. Other functional assays include the electrophysiological recording of Xenopus oocytes or mammalian cells expressing respective receptor variants. In addition, ion flux detectors can be used to functionally study GABA-A receptors in heterologous expression systems. The affinity of a compound to the GABA-A receptor can be measured in radioligand binding experiments using reference ligands containing a radioactive element, e.g., tritiated flumazenil, and intact cells or membrane preparations of cells expressing GABA-A receptors.
(§2) Activity and selectivity of a GABA-A receptor modulator according to the invention can, e.g., be determined in vitro as follows: A transfected eukaryotic cell line expressing the alpha1, alpha2 or alpha3 subunit of the GABA-A receptor together with a beta and a gamma subunit of the GABA-A receptor is incubated with a voltage-sensitive dye, and the effects of an agonist (typically GABA) or modulator addition are recorded in a fluorimetric plate reader. The opening of the GABA-A receptor channel and the subsequent flux of anions through it changes the trans-membrane voltage of the transfected cells, leading to a change in the fluorescent signal of the voltage-sensitive dye. In the presence of the agent of the invention, a sub-maximal concentration of GABA (e.g. an EC20 or an EC50) added to transfected cells expressing the alpha1, alpha2 or alpha3 subunit of the GABA-A receptor will elicit an at least 50%, preferably an at least 80%, ideally an at least 100%, increase, of the fluorescent signal, compared to the fluorescent signal obtained without the agent of the invention. In this assay, agents of the invention modulate the GABA-induced response at concentration from about 0.1 to about 10′000 nM.

[2] = target: T2, GABA-A alpha1 receptor (alpha 1 subunit together with a beta and a gamma subunit) (Homo sapiens, UniProt P14867+P18507); experiment: GABA-A receptor modulation, voltage-sensitive dye fluorescence in transfected eukaryotic cell line (alpha1); format: cell-based; details: compounds at 3 μM, sub-maximal concentration of GABA (EC20); for activation at 3 µM: read-out: alpha1 % mod (percentage of increase of the fluorescent signal compared to signal without the agent)
T2 construct: expressed in transfected cells
T2 sequence (P14867 28-456): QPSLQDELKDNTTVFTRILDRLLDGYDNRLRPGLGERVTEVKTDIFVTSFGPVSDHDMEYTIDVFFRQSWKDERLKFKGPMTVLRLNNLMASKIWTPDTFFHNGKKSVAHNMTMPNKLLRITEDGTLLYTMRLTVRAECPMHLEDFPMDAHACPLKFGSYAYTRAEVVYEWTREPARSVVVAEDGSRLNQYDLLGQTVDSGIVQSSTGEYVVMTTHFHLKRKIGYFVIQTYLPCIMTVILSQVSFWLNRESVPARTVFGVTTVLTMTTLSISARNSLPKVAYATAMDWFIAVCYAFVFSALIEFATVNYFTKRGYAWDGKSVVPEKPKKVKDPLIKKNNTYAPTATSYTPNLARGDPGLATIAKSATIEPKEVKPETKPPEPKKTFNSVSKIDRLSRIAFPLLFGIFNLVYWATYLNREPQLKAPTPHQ
T2 sequence (P47870 25-512 partner limits assumed): T1 sequence (P47870 25-512 partner limits assumed)
T2 sequence (P18507 40-467 limits assumed): T1 sequence (P18507 40-467 limits assumed)
From the text: as §1, §2

SMILES	activation at 3 µM [1]	activation at 3 µM [2]	alpha2 % mod (percentage of increase of the fluorescent signal compared to signal without the agent) [1]	alpha1 % mod (percentage of increase of the fluorescent signal compared to signal without the agent) [2]
COc1ccc(-n2nc3c(cnc4ccccc43)c2OCc2ccc(C(F)(F)F)cc2)cc1 [Example 1, 2-(4-Methoxy-phenyl)-3-(4-trifluoromethyl-benzyloxy)-2H-pyrazolo[4,3-c]quinoline]	36%	5%	–	–
CCCCOc1c2cnc3ccccc3c2nn1-c1ccccc1 [Example 4, 3-butoxy-2-phenyl-2H-pyrazolo[4,3-c]quinoline]	126%	137%	–	–
COc1ccc(-n2nc3c(cnc4ccccc43)c2OCCOc2ccccc2)cc1 [Example 13, 2-(4-methoxyphenyl)-3-(2-phenoxyethoxy)-2H-pyrazolo[4,3-c]quinoline]	52%	-29%	–	–
COc1ccc(-n2nc3c(cnc4ccccc43)c2OCCc2ccc(Cl)cc2)cc1 [Example 14, 3-[2-(4-chlorophenyl)ethoxy]-2-(4-methoxyphenyl)-2H-pyrazolo[4,3-c]quinoline]	34%	3%	–	–
COc1ccc(-n2nc3c(cnc4ccccc43)c2OCCc2ccccc2Cl)cc1 [Example 15, 3-[2-(2-chlorophenyl)ethoxy]-2-(4-methoxyphenyl)-2H-pyrazolo[4,3-c]quinoline]	197%	23%	–	–
Fc1ccccc1-n1nc2c(cnc3ccccc32)c1OCCc1ccccc1Cl [Example 16, 3-[2-(2-chlorophenyl)ethoxy]-2-(2-fluorophenyl)-2H-pyrazolo[4,3-c]quinoline]	101%	18%	–	–
COc1ccc(-n2nc3c(cnc4ccccc43)c2OCCCN2CCN(C)C2=O)cc1 [Example 17, 1-(3-{[2-(4-methoxyphenyl)-2H-pyrazolo[4,3-c]quinolin-3-yl]oxy}propyl)-3-methylimidazolidin-2-one]	577%	262%	–	–
COc1ccc(-n2nc3c(cnc4ccccc43)c2OCCN2CCOCC2)cc1 [Example 18, 2-(4-methoxyphenyl)-3-(2-morpholin-4-ylethoxy)-2H-pyrazolo[4,3-c]quinoline]	196%	67%	–	–
Fc1ccccc1-n1nc2c(cnc3ccccc32)c1OCCN1CCOCC1 [Example 19, 2-(2-fluorophenyl)-3-(2-morpholin-4-ylethoxy)-2H-pyrazolo[4,3-c]quinoline]	72%	0%	–	–
Fc1ccccc1COc1c2cnc3ccccc3c2nn1-c1ccccc1 [Example 27, 3-[(2-fluorobenzyl)oxy]-2-phenyl-2H-pyrazolo[4,3-c]quinoline]	165%	62%	–	–
Fc1ccc(-n2nc3c(cnc4ccccc43)c2OCc2ccccc2F)cc1 [Example 28, 3-[(2-fluorobenzyl)oxy]-2-(4-fluorophenyl)-2H-pyrazolo[4,3-c]quinoline]	146%	34%	–	–
Cc1cccc2c1ncc1c(OCc3ccc(Cl)cc3)n(-c3ccccc3)nc12 [Example 31, 3-[(4-chlorobenzyl)oxy]-6-methyl-2-phenyl-2H-pyrazolo[4,3-c]quinoline]	81%	51%	–	–
N#Cc1ccc2ncc3c(OCc4ccc(Cl)cc4)n(-c4ccccc4)nc3c2c1 [Example 32, 3-[(4-chlorobenzyl)oxy]-2-phenyl-2H-pyrazolo[4,3-c]quinoline-8-carbonitrile]	88%	34%	–	–
Fc1cccc2c1ncc1c(OCc3ccc(Cl)cc3)n(-c3ccccc3)nc12 [Example 33, 3-[(4-chlorobenzyl)oxy]-6-fluoro-2-phenyl-2H-pyrazolo[4,3-c]quinoline]	73%	39%	–	–
Clc1ccccc1COc1c2cnc3ccccc3c2nn1-c1ccccn1 [Example 34, 3-[(2-chlorobenzypoxy]-2-pyridin-2-y1-2H-pyrazolo[4,3-c]quinoline]	–	–	57 % mod	13 % mod
Cc1ccccc1-n1nc2c(cnc3ccccc32)c1OCc1ccccc1Br [Example 36, 3-[(2-bromobenzyl)oxy]-2-(2-methylphenyl)-2H-pyrazolo[4,3-c]quinoline]	315%	223%	–	–
Clc1ccccc1-n1nc2c(cnc3ccccc32)c1OCc1ccccc1Br [Example 41, 3-[(2-bromobenzyl)oxy]-2-(2-chlorophenyl)-2H-pyrazolo[4,3-c]quinoline]	386%	289%	–	–
Fc1ccc(-n2nc3c(cnc4ccccc43)c2OCc2ccccc2C(F)(F)F)cc1 [Example 50, 2-(4-fluorophenyl)-3-{[2-(trifluoromethyl)benzyl]oxy}-2H-pyrazolo[4,3-c]quinoline]	236%	47%	–	–
Clc1ccccc1COc1c2cnc3ccccc3c2nn1-c1ccc2c(c1)OCO2 [Example 59, 2-(1,3-benzodioxo1-5-y1)-3-[(2-chlorobenzypoxy]-2H-pyrazolo[4,3-c]quinoline]	–	–	66 % mod	−17 % mod
